Columns and labels:
Assay type in all cases: cell-based
[1] = target: T1, G2019S LRRK2 (Homo sapiens, UniProt Q5S007, G2019S); experiment: LRRK2 degradation assay, HiBit-tagged G2019S LRRK2 expressed from plasmid in HEK293 cells (Nano-Glo Dual-Luciferase); details: HiBit-tagged G2019S LRRK2 in HEK293 cells, 24 hours
T1 construct: expressed in transfected cells; host or cells: HEK293 (ATCC CRL-1573), transient transfection, mammalian expression vector with ubiquitin promoter
In short: (§1)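 HEK293 cells co-transfected with C-terminal HiBiT-tagged LRRK2 (WT or G2019S, ubiquitin promoter) and firefly luciferase, then dosed 24 h at 37 °C. HiBiT/firefly ratio normalized to DMSO median; DC50 and Dmax from per-plate curve fits, six replicates over two days.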

[2] = target: T2, wildtype LRRK2 (Homo sapiens, UniProt Q5S007); experiment: LRRK2 degradation assay, HiBit-tagged wildtype LRRK2 expressed from plasmid in HEK293 cells (Nano-Glo Dual-Luciferase); details: HiBit-tagged wildtype LRRK2 in HEK293 cells, 24 hours
T2 construct: expressed in transfected cells; host or cells: HEK293 (ATCC CRL-1573), transient transfection, mammalian expression vector with ubiquitin promoter
T2 sequence (Q5S007 whole entry): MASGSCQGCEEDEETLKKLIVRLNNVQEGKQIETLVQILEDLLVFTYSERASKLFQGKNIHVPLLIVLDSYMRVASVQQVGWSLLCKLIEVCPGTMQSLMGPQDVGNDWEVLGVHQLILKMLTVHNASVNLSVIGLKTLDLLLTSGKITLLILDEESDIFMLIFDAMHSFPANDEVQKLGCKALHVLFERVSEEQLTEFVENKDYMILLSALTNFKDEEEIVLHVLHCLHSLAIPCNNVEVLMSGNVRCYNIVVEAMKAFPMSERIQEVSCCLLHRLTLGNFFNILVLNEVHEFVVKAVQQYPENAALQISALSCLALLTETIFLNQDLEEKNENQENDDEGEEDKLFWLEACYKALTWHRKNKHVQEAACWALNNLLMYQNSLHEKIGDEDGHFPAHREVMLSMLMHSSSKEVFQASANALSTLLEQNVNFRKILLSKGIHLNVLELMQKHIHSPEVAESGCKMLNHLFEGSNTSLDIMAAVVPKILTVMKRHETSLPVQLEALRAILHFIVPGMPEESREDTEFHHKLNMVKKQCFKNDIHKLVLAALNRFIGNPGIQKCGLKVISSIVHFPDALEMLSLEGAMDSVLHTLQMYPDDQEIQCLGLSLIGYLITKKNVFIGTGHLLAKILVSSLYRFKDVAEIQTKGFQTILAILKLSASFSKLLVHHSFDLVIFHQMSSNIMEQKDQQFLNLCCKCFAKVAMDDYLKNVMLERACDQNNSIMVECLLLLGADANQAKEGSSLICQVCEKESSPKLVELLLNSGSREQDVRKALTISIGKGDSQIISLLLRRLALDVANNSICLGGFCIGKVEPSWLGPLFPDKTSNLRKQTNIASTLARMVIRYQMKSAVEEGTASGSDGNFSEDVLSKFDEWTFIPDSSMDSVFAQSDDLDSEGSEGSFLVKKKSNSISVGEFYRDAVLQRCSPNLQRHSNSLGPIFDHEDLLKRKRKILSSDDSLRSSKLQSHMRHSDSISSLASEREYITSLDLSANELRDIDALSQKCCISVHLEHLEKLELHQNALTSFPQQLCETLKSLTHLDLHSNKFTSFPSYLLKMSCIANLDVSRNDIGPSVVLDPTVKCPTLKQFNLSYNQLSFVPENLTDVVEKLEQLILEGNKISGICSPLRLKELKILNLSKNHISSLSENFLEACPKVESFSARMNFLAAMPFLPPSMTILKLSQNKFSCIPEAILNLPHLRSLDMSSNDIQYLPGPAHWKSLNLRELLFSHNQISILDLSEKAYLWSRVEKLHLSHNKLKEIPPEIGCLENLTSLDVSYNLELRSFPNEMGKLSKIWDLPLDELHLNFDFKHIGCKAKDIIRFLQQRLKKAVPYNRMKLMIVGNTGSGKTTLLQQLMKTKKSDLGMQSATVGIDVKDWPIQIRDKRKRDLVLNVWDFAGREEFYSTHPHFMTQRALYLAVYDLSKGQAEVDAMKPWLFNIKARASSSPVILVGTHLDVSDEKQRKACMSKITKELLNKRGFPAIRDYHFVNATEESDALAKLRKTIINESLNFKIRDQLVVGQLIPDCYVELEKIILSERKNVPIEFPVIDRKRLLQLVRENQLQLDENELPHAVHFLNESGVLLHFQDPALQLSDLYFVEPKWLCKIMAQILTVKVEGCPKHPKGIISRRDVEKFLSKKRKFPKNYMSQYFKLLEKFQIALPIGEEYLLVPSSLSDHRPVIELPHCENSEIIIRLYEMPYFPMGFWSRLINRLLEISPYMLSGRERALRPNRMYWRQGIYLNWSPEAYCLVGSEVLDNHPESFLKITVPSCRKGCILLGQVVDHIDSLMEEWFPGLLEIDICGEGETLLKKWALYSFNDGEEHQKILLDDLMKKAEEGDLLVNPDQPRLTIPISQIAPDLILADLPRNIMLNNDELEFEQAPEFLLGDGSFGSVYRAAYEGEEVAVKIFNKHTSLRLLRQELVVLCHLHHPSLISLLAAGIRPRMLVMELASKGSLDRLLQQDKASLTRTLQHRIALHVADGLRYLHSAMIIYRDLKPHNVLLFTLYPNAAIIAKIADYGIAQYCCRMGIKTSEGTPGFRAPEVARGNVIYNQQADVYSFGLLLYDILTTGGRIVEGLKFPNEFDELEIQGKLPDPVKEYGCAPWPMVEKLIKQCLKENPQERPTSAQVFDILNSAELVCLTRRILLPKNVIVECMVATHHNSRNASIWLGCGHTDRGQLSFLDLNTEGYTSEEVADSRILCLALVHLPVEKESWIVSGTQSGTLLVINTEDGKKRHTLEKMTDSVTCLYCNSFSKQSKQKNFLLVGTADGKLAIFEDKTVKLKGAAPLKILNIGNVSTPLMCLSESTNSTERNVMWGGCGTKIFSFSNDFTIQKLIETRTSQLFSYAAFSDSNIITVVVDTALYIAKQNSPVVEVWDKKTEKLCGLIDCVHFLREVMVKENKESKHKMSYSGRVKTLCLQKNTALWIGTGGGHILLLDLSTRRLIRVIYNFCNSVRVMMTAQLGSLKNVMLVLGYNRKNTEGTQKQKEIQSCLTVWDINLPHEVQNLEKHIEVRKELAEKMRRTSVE
In short: as §1

[3] = target: T3, LRRK2 (endogenous, HiBit tagged) (Homo sapiens, UniProt Q5S007); experiment: Endogenous LRRK2 degradation assay, endogenous gene C-terminally HiBit-tagged in HEK293 cells (Nano-Glo Dual Luciferase); details: endogenous HiBit-tagged LRRK2 in HEK293 cells, 24 hours
T3 construct: endogenous in cells; host or cells: HEK293 cells with HiBit knock-in at the endogenous LRRK2 locus, stably expressing firefly luciferase
T3 sequence (Q5S007 whole entry): as above
In short: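 LRRK2-HiBit quantified via Nano-Glo Dual Luciferase in HEK293 knock-in cells co-expressing firefly luciferase, after 24 h exposure to compound (1 μM final top, 1:3, 11 points). Values normalised to DMSO median per plate and curve-fitted; Alamar Blue viability run alongside.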

T1 sequence (Q5S007 whole entry G2019S): as the sequence (Q5S007 whole entry) above, with G2019S counted along it

DC50 [1]: < 10 nM | Dmax [1]: 50 to 70% | Dmax ([2]; read-out: **WT Dmax (%)): 50 to 70% | DC50 ([2]; read-out: *WT DC50): < 10 nM | Dmax ([3]; read-out: **Endogenous WT Dmax (%)): 50 to 70% | DC50 ([3]; read-out: *Endogenous WT DC50): < 10 nM
Structure (SMILES): CC1(Oc2ccc3[nH]nc(-c4cc(N5CCN(C[C@H]6CC(=O)N(CC7CCN(c8ccc9c(c8)C(=O)N(C8CCC(=O)NC8=O)C9=O)CC7)C6)CC5)ncn4)c3c2)CC1 (single isomer, unassigned) [Compound 120]
